From patent US20050009813A1 (priority 2001, published 2005)
Values joined by “and” are separate entries in the source; they are usually repeats but may differ in a detail not shown here. Equal values may be shown once. Where a name gives a salt, the structure may show the parent alone.

How the values were obtained:
[1] = test system: behavioural despair (acquired immobility); test: Forced Swimming Test (Porsolt Swimming Test) on rats; format: in vivo, rat (Sprague Dawley); settings: for Acquired Immobility (group mean value in minutes ± standard dev.): three administrations, 5 min test; for Acquired Immobility (group mean value in minutes ± standard dev.) / Change relative to control group (acquired immobility): rat, SD strain
Method: To verify whether this MAO-A-inhibitory action in vivo is relevant, deoxypeganine was tested in the “Forced Swimming Test” on rats (R. D. Porsolt et al., Nature 1977; 266(5604): 730-732). […] The time spent with attempts at escape until the animals fall into this psychomotorical inactivation (considered to be a surrogate for depression) is measured; prolonged activity corresponds to antidepressive action.
In the concrete case, […], about 6 weeks old (strain Sprague Dawley); acquired from Charles River UK Ltd.) were divided into 7 groups with 10 animals each. On the first day, after termination of the habituation phase, each animal was placed for 10 minutes in a cylindrical vessel filled about 15 cm high with 25°-warm water; this was followed, after one hour, 19 hours, and 23 hours, by three oral administrations of (depending on the group) either negative control (water), 15 mg/kg positive control (imipramine.HCl), or deoxypeganine.HCl in dosages of 1.0, 2.5, 7.5, 15.0 or 22.5 mg/kg of bodyweight. The volume, administered with the aid of a gastric tube, was in each case 5 ml/kg of bodyweight. One hour after the third of these treatments, each animal was again placed in the vessel for exactly 5 minutes and the time spent in minimal mobility was measured.

[2] = test system: cholinergic memory deficits; test: Compensation of cholinergic memory deficits in rats with partially destroyed central cholinergic pathways; format: in vivo
Text: It can be inferred therefrom that the effect observable in the swimming test reaches its maximum at a fraction of the dose necessary for maximal activation of the cholinergic system, which according to the state of the art could not be reckoned with.

psychomotoric activation = test: Open Field Paradigma; format: in vivo, Sprague-Dawley rats; settings: treatment for 2 weeks, daily doses of 2.5 to 22.5 mg/kg
Text: Since such results can in principle also be obtained by psychomotorically activating substances which have no anti-depressive action, the effect of deoxypeganine was also examined, with the same dose range, in the so-called Open Field Paradigma. Here one makes use of the fact that it is stressful for rats to stay in an open, bright area, and therefore such situations are avoided by the rats if possible.

[3] = target: T1, monoamino oxidase A from rat brain (Rattus norvegicus, UniProt P21396); test: Inhibition of monoamino oxidase A from rat brain, [3H]serotonine substrate (Medvedev et al.); format: biochemical, rat (Wistar strain); settings: rat brain MAO-A; 95 μM [3H]serotonine; 1% DMSO in 20 mM potassium dihydrogenphosphate buffer pH 7.4; 10 nM to 10 μM; read-out: semi-maximal inhibitory action (IC50), monoamino oxidase A
T1 sequence (P21396 1-526): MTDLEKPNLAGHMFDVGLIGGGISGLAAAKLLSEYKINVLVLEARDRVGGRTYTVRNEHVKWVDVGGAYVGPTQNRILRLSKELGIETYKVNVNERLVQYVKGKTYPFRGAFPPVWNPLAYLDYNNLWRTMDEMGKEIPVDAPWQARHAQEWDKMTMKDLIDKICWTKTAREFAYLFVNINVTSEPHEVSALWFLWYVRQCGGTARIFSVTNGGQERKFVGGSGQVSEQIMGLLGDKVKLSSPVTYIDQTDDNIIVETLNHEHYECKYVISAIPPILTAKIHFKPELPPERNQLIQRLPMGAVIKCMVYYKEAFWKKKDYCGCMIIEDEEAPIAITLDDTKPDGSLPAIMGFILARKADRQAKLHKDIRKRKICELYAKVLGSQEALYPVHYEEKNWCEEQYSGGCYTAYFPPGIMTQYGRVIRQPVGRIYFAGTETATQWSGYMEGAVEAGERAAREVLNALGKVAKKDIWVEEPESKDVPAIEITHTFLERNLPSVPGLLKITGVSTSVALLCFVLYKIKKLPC
Method: The inhibitory action of deoxypeganine in respect of monoamino oxidase A from rat brain (Wistar strain) was measured in the concentration range of from 10 nM to 10 μM according to the method described by Medvedev et al. (Biochem Pharmacol 1994; 47(2): 303-308) and compared with clorogyline as the positive control, whereby in both cases 95 μM [^3H]serotonine in a solution of 1% dimethylsulfoxide in 20 mM of potassium dihydrogenphosphate buffer pH 7.4 served as substrate.

Monoamino oxidase B = target: T2, Monoamino oxidase B (Rattus norvegicus, UniProt P19643); test: Inhibition of monoamino oxidase B
T2 sequence (P19643 1-520): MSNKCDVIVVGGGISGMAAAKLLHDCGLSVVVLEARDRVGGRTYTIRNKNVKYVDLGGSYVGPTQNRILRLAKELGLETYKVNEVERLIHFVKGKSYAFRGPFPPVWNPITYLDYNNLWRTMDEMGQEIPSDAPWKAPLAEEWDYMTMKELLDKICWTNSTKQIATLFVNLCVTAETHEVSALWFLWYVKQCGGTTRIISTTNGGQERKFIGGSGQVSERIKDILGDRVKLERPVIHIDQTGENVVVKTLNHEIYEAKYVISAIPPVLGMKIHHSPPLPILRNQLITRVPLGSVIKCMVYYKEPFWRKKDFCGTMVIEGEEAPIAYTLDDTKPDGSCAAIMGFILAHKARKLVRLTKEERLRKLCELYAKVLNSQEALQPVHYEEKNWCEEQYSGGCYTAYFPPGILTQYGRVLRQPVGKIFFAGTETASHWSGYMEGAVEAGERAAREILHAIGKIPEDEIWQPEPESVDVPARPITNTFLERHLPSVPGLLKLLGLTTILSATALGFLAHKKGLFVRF

For Cl.c1ccc2c(c1)CN1CCCC1=N2 [deoxypeganine hydrochloride], the “Acquired Immobility (group mean value in minutes ± standard dev.)” value ([1]; 1.0 mg/kg p.o.) was 3.46 ± 0.83 min, the “Change relative to control group (acquired immobility)” value (shortened to “Change relative to control group”) ([1]; 1.0 mg/kg p.o.) was “+0.3%” and the “Acquired Immobility (group mean value in minutes ± standard dev.)” value ([1]; 2.5 mg/kg p.o.) was 2.80 ± 1.02 min. For the same compound, the “Change relative to control group” value ([1]; 2.5 mg/kg p.o.) was −18.8%, the “Change relative to control group” value ([1]; 7.5 mg/kg p.o., hydrochloride) was −47.2% and −41.4% and the “Change relative to control group” value ([1]; 15 mg/kg p.o.) was −44.1%. The “Change relative to control group” value ([1]; 22.5 mg/kg p.o.) was −43.8%.

CN(C)CCCN1c2ccccc2CCc2ccccc21 [imipramine HCl, reference compound] was tested, and the “Change relative to control group” value ([1]; 15 mg/kg p.o., HCl) was −56.5% and −58.9%.

For c1ccc2c(c1)CN1CCCC1=N2 [deoxypeganine, 1,2,3,9-tetrahydropyrrolo[2,1-b]quinazoline], the “effectiveness in forced swimming test, in words” value ([1]; 2.5 mg/kg) was “only partially effective”, the “effectiveness in forced swimming test, in words” value ([1]; dose of 1 mg/kg) was “not yet effective” and the “dose of maximal action in the Porsolt test” value ([1]; p.o., comparable to the antidepressant imipramine) was 7.5 mg/kg. The “compensation of cholinergic memory deficits, in words” value ([2]; 22.5 mg/kg oral) was “had not yet reached its maximum value”, the “compensation of cholinergic memory deficits, in words” value ([2]; oral dose of 7.5 mg/kg) was “not yet statistically significant” and the “psychomotoric activation in open field, in words” value (psychomotoric activation) was “no indication of psychomotoric activation”. The IC50 [3] was 1490 nM, the “inhibition of Type B enzyme (MAO-B), in words” value (Monoamino oxidase B; in vitro) was “not significantly inhibited” and the inhibition at 10 µM (Monoamino oxidase B; read-out: inhibition of monoamino oxidase B) was 15 to 20%.
